{"source": "PubChem BioAssay AID1259407", "about": "(Chemical Carcinogenesis Research Information System (CCRIS), 2018)", "test_system": "CCRIS mutagenicity, Ames/micronucleus/aberration tests", "assay": "CCRIS mutagenicity studies", "key": {"[1]": {"conditions": "Test System: AMES SALMONELLA TYPHIMURIUM, Strain/Indicator: TA100, Metabolic Activation: RAT, LIVER, S-9, AROCLOR 1254, Method: STANDARD PLATE"}}, "note": "Active and inactive are the calls of the source. The rule behind the calls is not given here.", "data": [{"smiles": "c1ccc(NNc2ccccc2)cc1", "values": [{"measurement": "mutagenic call", "setting": "End Point: IN VITRO CHROMOSOMAL ABERRATIONS, Test System: CHINESE HAMSTER OVARY CELLS, Metabolic Activation: NONE", "result": "active; positive; statistically significant increase, but not dose-related"}, {"measurement": "mutagenic call", "setting": "End Point: IN VITRO CHROMOSOMAL ABERRATIONS, Test System: CHINESE HAMSTER OVARY CELLS, Metabolic Activation: RAT, LIVER, S-9, AROCLOR 1254", "result": "active; positive"}, {"measurement": "mutagenic call", "setting": "Test System: AMES SALMONELLA TYPHIMURIUM, Strain/Indicator: TA98, Metabolic Activation: HAMSTER, LIVER, S-9, AROCLOR 1254, Method: STANDARD PLATE", "result": "inactive; negative"}, {"measurement": "mutagenic call", "setting": "Test System: AMES SALMONELLA TYPHIMURIUM, Strain/Indicator: TA98, Metabolic Activation: HAMSTER, LIVER, S-9, Method: STANDARD PLATE", "result": "inactive; negative"}, {"measurement": "mutagenic call", "setting": "Test System: AMES SALMONELLA TYPHIMURIUM, Strain/Indicator: TA98, Metabolic Activation: MOUSE, LIVER, S-9, AROCLOR 1254, Method: STANDARD PLATE", "result": "inactive; negative"}, {"measurement": "mutagenic call", "setting": "Test System: AMES SALMONELLA TYPHIMURIUM, Strain/Indicator: TA98, Metabolic Activation: MOUSE, LIVER, S-9, Method: STANDARD PLATE", "result": "inactive; negative"}, {"measurement": "mutagenic call", "setting": "Test System: AMES SALMONELLA TYPHIMURIUM, Strain/Indicator: TA98, Metabolic Activation: NONE, Method: STANDARD PLATE", "result": "inactive; negative"}, {"measurement": "mutagenic call", "setting": "Test System: AMES SALMONELLA TYPHIMURIUM, Strain/Indicator: TA98, Metabolic Activation: RAT, LIVER, S-9, Method: STANDARD PLATE", "result": "inactive; negative"}, {"measurement": "mutagenic call", "setting": "Test System: AMES SALMONELLA TYPHIMURIUM, Strain/Indicator: TA100, Metabolic Activation: HAMSTER, LIVER, S-9, AROCLOR 1254, Method: STANDARD PLATE", "result": "inactive; negative"}, {"measurement": "mutagenic call", "setting": "Test System: AMES SALMONELLA TYPHIMURIUM, Strain/Indicator: TA100, Metabolic Activation: HAMSTER, LIVER, S-9, Method: STANDARD PLATE", "result": "inactive; negative"}, {"measurement": "mutagenic call", "setting": "Test System: AMES SALMONELLA TYPHIMURIUM, Strain/Indicator: TA100, Metabolic Activation: MOUSE, LIVER, S-9, AROCLOR 1254, Method: STANDARD PLATE", "result": "active; positive"}, {"measurement": "mutagenic call", "setting": "Test System: AMES SALMONELLA TYPHIMURIUM, Strain/Indicator: TA100, Metabolic Activation: MOUSE, LIVER, S-9, Method: STANDARD PLATE", "result": "inactive; negative"}, {"measurement": "mutagenic call", "setting": "Test System: AMES SALMONELLA TYPHIMURIUM, Strain/Indicator: TA100, Metabolic Activation: NONE, Method: STANDARD PLATE", "result": "inactive; negative"}, {"measurement": "mutagenic call", "setting": "[1]", "result": "active; positive"}, {"measurement": "mutagenic call", "setting": "Test System: AMES SALMONELLA TYPHIMURIUM, Strain/Indicator: TA100, Metabolic Activation: RAT, LIVER, S-9, Method: STANDARD PLATE", "result": "inactive; negative"}, {"measurement": "mutagenic call", "setting": "Test System: AMES SALMONELLA TYPHIMURIUM, Strain/Indicator: TA1535, Metabolic Activation: HAMSTER, LIVER, S-9, AROCLOR 1254, Method: STANDARD PLATE", "result": "inactive; negative"}, {"measurement": "mutagenic call", "setting": "Test System: AMES SALMONELLA TYPHIMURIUM, Strain/Indicator: TA1535, Metabolic Activation: HAMSTER, LIVER, S-9, Method: STANDARD PLATE", "result": "inactive; negative"}, {"measurement": "mutagenic call", "setting": "Test System: AMES SALMONELLA TYPHIMURIUM, Strain/Indicator: TA1535, Metabolic Activation: MOUSE, LIVER, S-9, Method: STANDARD PLATE", "result": "inactive; negative"}, {"measurement": "mutagenic call", "setting": "Test System: AMES SALMONELLA TYPHIMURIUM, Strain/Indicator: TA1535, Metabolic Activation: NONE, Method: STANDARD PLATE", "result": "inactive; negative"}, {"measurement": "mutagenic call", "setting": "Test System: AMES SALMONELLA TYPHIMURIUM, Strain/Indicator: TA1535, Metabolic Activation: RAT, LIVER, S-9, AROCLOR 1254, Method: STANDARD PLATE", "result": "inactive; negative"}, {"measurement": "mutagenic call", "setting": "Test System: AMES SALMONELLA TYPHIMURIUM, Strain/Indicator: TA1535, Metabolic Activation: RAT, LIVER, S-9, Method: STANDARD PLATE", "result": "inactive; negative"}, {"measurement": "mutagenic call", "setting": "Test System: AMES SALMONELLA TYPHIMURIUM, Strain/Indicator: TA1537, Metabolic Activation: HAMSTER, LIVER, S-9, AROCLOR 1254, Method: STANDARD PLATE", "result": "inactive; negative"}, {"measurement": "mutagenic call", "setting": "Test System: AMES SALMONELLA TYPHIMURIUM, Strain/Indicator: TA1537, Metabolic Activation: HAMSTER, LIVER, S-9, Method: STANDARD PLATE", "result": "inactive; negative"}, {"measurement": "mutagenic call", "setting": "Test System: AMES SALMONELLA TYPHIMURIUM, Strain/Indicator: TA1537, Metabolic Activation: MOUSE, LIVER, S-9, AROCLOR 1254, Method: STANDARD PLATE", "result": "inactive; negative"}, {"measurement": "mutagenic call", "setting": "Test System: AMES SALMONELLA TYPHIMURIUM, Strain/Indicator: TA1537, Metabolic Activation: MOUSE, LIVER, S-9, Method: STANDARD PLATE", "result": "inactive; negative"}, {"measurement": "mutagenic call", "setting": "Test System: AMES SALMONELLA TYPHIMURIUM, Strain/Indicator: TA1537, Metabolic Activation: NONE, Method: STANDARD PLATE", "result": "inactive; negative"}, {"measurement": "mutagenic call", "setting": "Test System: AMES SALMONELLA TYPHIMURIUM, Strain/Indicator: TA1537, Metabolic Activation: RAT, LIVER, S-9, AROCLOR 1254, Method: STANDARD PLATE", "result": "inactive; negative"}, {"measurement": "mutagenic call", "setting": "Test System: AMES SALMONELLA TYPHIMURIUM, Strain/Indicator: TA1537, Metabolic Activation: RAT, LIVER, S-9, Method: STANDARD PLATE", "result": "inactive; negative"}, {"measurement": "mutagenic call", "setting": "Test System: AMES SALMONELLA TYPHIMURIUM, Strain/Indicator: TA1538, Metabolic Activation: HAMSTER, LIVER, S-9, AROCLOR 1254, Method: STANDARD PLATE", "result": "inactive; negative"}, {"measurement": "mutagenic call", "setting": "Test System: AMES SALMONELLA TYPHIMURIUM, Strain/Indicator: TA1538, Metabolic Activation: HAMSTER, LIVER, S-9, Method: STANDARD PLATE", "result": "inactive; negative"}, {"measurement": "mutagenic call", "setting": "Test System: AMES SALMONELLA TYPHIMURIUM, Strain/Indicator: TA1538, Metabolic Activation: MOUSE, LIVER, S-9, AROCLOR 1254, Method: STANDARD PLATE", "result": "inactive; negative"}, {"measurement": "mutagenic call", "setting": "Test System: AMES SALMONELLA TYPHIMURIUM, Strain/Indicator: TA1538, Metabolic Activation: MOUSE, LIVER, S-9, Method: STANDARD PLATE", "result": "inactive; negative"}, {"measurement": "mutagenic call", "setting": "Test System: AMES SALMONELLA TYPHIMURIUM, Strain/Indicator: TA1538, Metabolic Activation: NONE, Method: STANDARD PLATE", "result": "inactive; negative"}, {"measurement": "mutagenic call", "setting": "Test System: AMES SALMONELLA TYPHIMURIUM, Strain/Indicator: TA1538, Metabolic Activation: RAT, LIVER, S-9, AROCLOR 1254, Method: STANDARD PLATE", "result": "inactive; negative"}, {"measurement": "mutagenic call", "setting": "Test System: AMES SALMONELLA TYPHIMURIUM, Strain/Indicator: TA1538, Metabolic Activation: RAT, LIVER, S-9, Method: STANDARD PLATE", "result": "inactive; negative"}, {"measurement": "mutagenic call", "setting": "Test System: E. COLI, Strain/Indicator: WP2 UVRA, Metabolic Activation: HAMSTER, LIVER, S-9, AROCLOR 1254, Method: STANDARD PLATE", "result": "inactive; negative"}, {"measurement": "mutagenic call", "setting": "Test System: E. COLI, Strain/Indicator: WP2 UVRA, Metabolic Activation: HAMSTER, LIVER, S-9, Method: STANDARD PLATE", "result": "inactive; negative"}, {"measurement": "mutagenic call", "setting": "Test System: E. COLI, Strain/Indicator: WP2 UVRA, Metabolic Activation: MOUSE, LIVER, S-9, AROCLOR 1254, Method: STANDARD PLATE", "result": "inactive; negative"}, {"measurement": "mutagenic call", "setting": "Test System: E. COLI, Strain/Indicator: WP2 UVRA, Metabolic Activation: MOUSE, LIVER, S-9, Method: STANDARD PLATE", "result": "inactive; negative"}, {"measurement": "mutagenic call", "setting": "Test System: E. COLI, Strain/Indicator: WP2 UVRA, Metabolic Activation: NONE, Method: STANDARD PLATE", "result": "inactive; negative"}, {"measurement": "mutagenic call", "setting": "Test System: E. COLI, Strain/Indicator: WP2 UVRA, Metabolic Activation: RAT, LIVER, S-9, AROCLOR 1254, Method: STANDARD PLATE", "result": "inactive; negative"}, {"measurement": "mutagenic call", "setting": "Test System: E. COLI, Strain/Indicator: WP2 UVRA, Metabolic Activation: RAT, LIVER, S-9, Method: STANDARD PLATE", "result": "inactive; negative"}]}, {"smiles": "C[C@@H]1O[C@@H]1c1ccccc1", "values": [{"measurement": "mutagenic call", "setting": "Test System: AMES SALMONELLA TYPHIMURIUM, Strain/Indicator: TA98, Metabolic Activation: NONE, Method: PREINCUBATION (PHOSPHATE-BUFFERED KCL OR SOLUTE-FREE WATER MEDIA)", "result": "inactive; negative"}, {"measurement": "mutagenic call", "setting": "Test System: AMES SALMONELLA TYPHIMURIUM, Strain/Indicator: TA100, Metabolic Activation: NONE, Method: PREINCUBATION (PHOSPHATE-BUFFERED KCL OR SOLUTE-FREE WATER MEDIA)", "result": "inactive; negative"}, {"measurement": "mutagenic call", "setting": "Test System: AMES SALMONELLA TYPHIMURIUM, Strain/Indicator: TA104, Metabolic Activation: NONE, Method: PREINCUBATION (PHOSPHATE-BUFFERED KCL OR SOLUTE-FREE WATER MEDIA)", "result": "inactive; negative"}, {"measurement": "mutagenic call", "setting": "Test System: CHINESE HAMSTER V-79, Strain/Indicator: V-79 (HPRT)/6-THIOGUANINE, Metabolic Activation: NONE", "result": "inactive; negative"}]}, {"smiles": "N#CCc1cn(N=O)c2ccccc12", "values": [{"measurement": "mutagenic call", "setting": "Test System: AMES SALMONELLA TYPHIMURIUM, Strain/Indicator: TA100, Metabolic Activation: NONE", "result": "active; positive"}, {"measurement": "mutagenic call", "setting": "Test System: AMES SALMONELLA TYPHIMURIUM, Strain/Indicator: TA100, Metabolic Activation: S-9", "result": "active; positive"}]}, {"smiles": "COc1ccc2c(c1OC)C(=O)O[C@@H]2[C@H]1c2c(cc3c(c2OC)OCO3)CCN1C", "values": [{"measurement": "mutagenic call", "setting": "End Point: CHROMOSOMAL ABERRATIONS, Test System: HUMAN LYMPHOCYTES, Metabolic Activation: NONE, Method: FISH", "result": "active; positive (ploidy changes)"}, {"measurement": "mutagenic call", "setting": "End Point: In vivo micronucleus, Test System: Micronucleated, binucleated and multinucleated hepatocytes, Species: Mouse, Strain/Sex: ddY/Male, Route: Intravenous", "result": "active; positive for micronucleated, binucleated and multinucleated cells when agent adm"}, {"measurement": "mutagenic call", "setting": "End Point: MICRONUCLEUS, Test System: HUMAN LYMPHOCYTES, Metabolic Activation: NONE", "result": "active; positive (aneuploidy and polyploidy)"}]}, {"smiles": "O=C1CCc2ccc3ccc4ccccc4c3c21", "values": [{"measurement": "mutagenic call", "setting": "[1]", "result": "inactive; negative"}]}]}
